# Measurements reported in patent US20150073050A1 (Amarin Pharmaceuticals Ireland Limited, priority 2013, published 2015).
# Assay: Safety evaluation in the drug-drug interaction study (adverse events, clinical laboratory, vital signs, physical examination)
# Assay type: in vivo, human
# Details: omeprazole 40 mg with ethyl eicosapentaenoate 4 g/day, healthy subjects
# Source text: Safety evaluations consisted of monitoring adverse events (AEs), clinical laboratory measurements (chemistry, hematology, and urinalysis), vital signs (systolic and diastolic blood pressure, heart rate, respiratory rate and oral body temperature), and physical examination findings.
structure (smiles),measurement,value
"COc1ccc2[nH]c([S+]([O-])Cc3ncc(C)c(OC)c3C)nc2c1 (stereo not drawn) [Omeprazole, omeprazole]",Premature discontinuation due to an adverse event,no subjects prematurely discontinued
same,Safety and tolerability of concomitant administration,safe and well-tolerated
same,Serious adverse events,No serious adverse events
"CC/C=C\C/C=C\C/C=C\C/C=C\C/C=C\CCCC(=O)OCC [ethyl eicosapentaenoate, all-cis eicosa-5,8,11,14,17-pentaenoic acid ethyl ester]",Premature discontinuation due to an adverse event,no subjects prematurely discontinued
same,Safety and tolerability of concomitant administration,safe and well-tolerated
same,Serious adverse events,No serious adverse events
